# Measured values: ChEMBL document CHEMBL4152224, “The Identification of Potent, Selective, and Orally Available Inhibitors of Ataxia Telangiectasia Mutated (ATM) Kinase: The Discovery of AZD0156 (8-{6-[3-(Dimethylamino)propoxy]pyridin-3-yl}-3-methyl-1-(tetrahydro-2 H-pyran-4-yl)-1,3-dihydro-2 H-imidazo[4,5- c]quinolin-2-one)” (J Med Chem, 2018)
# Active and inactive are the calls of the source. No cut-off for these calls is given here.
# Key:
# Homo sapiens [1] = organism: Homo sapiens; assay: Selectivity ratio of IC50 for ATR derived from human HeLa cell cytoplasmic extract to IC50 for ATM derived from human HeLa cell nuclear extract
# Homo sapiens [2] = organism: Homo sapiens; assay: Selectivity ratio of IC50 for DNA-PK derived from human HeLa cells to IC50 for ATM derived from human HeLa cell nuclear extract
# Homo sapiens [3] = organism: Homo sapiens; assay: Selectivity ratio of IC50 for mTOR derived from human HeLa cells to IC50 for ATM derived from human HeLa cell nuclear extract
# [4] = molecular target: Serine-protein kinase ATM (Homo sapiens, UniProt Q13315); assay: Inhibition of ATM derived from human HeLa cell nuclear extract using glutathione S-transferase p53N66 as substrate preincubated for 10 mins followed by ATP addition and subsequent incubation for 1 hr measured after 1.5 hrs by ELISA
# Homo sapiens [5] = organism: Homo sapiens; assay: Selectivity ratio of IC50 for PI3K derived from human HeLa cells to IC50 for ATM derived from human HeLa cell nuclear extract
# [6] = Tmax in patient with solid tumor at 15 mg, po bid by LC-MS/MS analysis; format: ADME, organism-based; conditions: human, in vivo
# [7] = AUC (0 to 12 hrs) in patient with solid tumor at 30 mg, po bid by LC-MS/MS analysis; format: ADME, organism-based; parameters: time < 12 hr, dose 30 mg, route oral; conditions: human, in vivo
# [8] = Oral bioavailability in dog; format: ADME, organism-based, Canis lupus familiaris; conditions: in vivo
# [9] = Buffer/octanol partition coefficient, log D of the compound at pH 7.4 by shake flask method; format: physicochemical
# [10] = Tmax in patient with solid tumor at 120 mg, po bid by LC-MS/MS analysis; format: ADME, organism-based; conditions: human, in vivo
# SW-620 [11] = assay: Potentiation of irinotecan-induced tumor regression against human SW620 cells xenografted in immunocompromised mouse at 20 mg/kg, po qd administered on days 2 to 4 of weekly cycle; format: functional, organism-based
# [12] = Oral bioavailability in rat; format: ADME, organism-based; conditions: in vivo
# [13] = Tmax in patient with solid tumor at 30 mg, po bid by LC-MS/MS analysis; format: ADME, organism-based; conditions: human, in vivo
# Cytochrome P450 1A2 = molecular target: T1, Cytochrome P450 1A2 (Homo sapiens, UniProt P05177); assay: Inhibition of human CYP1A2; format: ADME
# T1 sequence (P05177 whole entry): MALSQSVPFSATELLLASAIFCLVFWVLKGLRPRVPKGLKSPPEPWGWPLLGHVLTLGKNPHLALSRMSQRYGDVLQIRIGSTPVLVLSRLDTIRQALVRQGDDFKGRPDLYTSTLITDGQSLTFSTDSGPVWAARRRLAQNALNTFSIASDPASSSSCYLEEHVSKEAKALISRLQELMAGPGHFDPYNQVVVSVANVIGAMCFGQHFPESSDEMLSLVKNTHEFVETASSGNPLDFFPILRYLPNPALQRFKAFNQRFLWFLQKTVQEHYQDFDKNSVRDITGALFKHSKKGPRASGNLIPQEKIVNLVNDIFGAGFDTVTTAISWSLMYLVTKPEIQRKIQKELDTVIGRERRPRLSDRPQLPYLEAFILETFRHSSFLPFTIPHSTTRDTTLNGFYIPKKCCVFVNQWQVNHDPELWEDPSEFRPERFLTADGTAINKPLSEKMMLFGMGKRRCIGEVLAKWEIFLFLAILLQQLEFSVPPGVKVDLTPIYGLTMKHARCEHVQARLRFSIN
# Mus musculus [14] = assay: Toxicity in immunocompromised mouse xenografted with human HBCx-10 cells at 5 mg/kg, po qd administered on days 1 to 3 of weekly cycle in presence of olaparib; format: organism-based; conditions: in vivo
# [15] = Apparent permeability across apical to basolateral side in MDCK cells overexpressing MDR1; format: ADME, cell-based, Canis lupus familiaris; conditions: dog
# [16] = AUC (0 to 12 hrs) in patient with solid tumor at 60 mg, po bid by LC-MS/MS analysis; format: ADME, organism-based; parameters: dose 60 mg, time < 12 hr, route oral; conditions: human, in vivo
# Homo sapiens [17] = assay: Potentiation of […]-induced tumor regression against human HBCx-10 cells xenografted in immunocompromised mouse at 5 mg/kg, po qd administered on days 1 to 3 of weekly cycle; format: functional, organism-based
# [18] = Fraction unbound in rat plasma
# [19] = Cmax in patient with solid tumor at 60 mg, po bid by LC-MS/MS analysis; format: ADME, organism-based; parameters: dose 60 mg, route oral; conditions: human, in vivo
# SW-620 [20] = assay: Antitumor activity against human SW620 cells xenografted in immunocompromised mouse assessed as tumor regression at 20 mg/kg, po qd administered on days 2 to 4 of weekly cycle; format: functional, organism-based
# [21] = AUC (0 to 12 hrs) in patient with solid tumor at 120 mg, po bid by LC-MS/MS analysis; format: ADME, organism-based; parameters: dose 120 mg, time < 12 hr, route oral; conditions: human, in vivo
# [22] = Apparent permeability across apical to basolateral side in human Caco2 cells at pH 6.5; format: ADME, cell-based; conditions: Caco-2, pH 6.5
# [23] = Volume of distribution at steady state in dog; format: ADME, organism-based, Canis lupus familiaris; conditions: in vivo, read-out: Vdss
# Mus musculus [24] = assay: Toxicity in immunocompromised mouse xenografted with human SW620 cells at 20 mg/kg, po qd administered on days 2 to 4 of weekly cycle in presence of irinotecan; format: organism-based; conditions: in vivo
# [25] = Volume of distribution at steady state in rat; format: ADME, organism-based; conditions: in vivo, read-out: Vdss
# Cytochrome P450 3A4 = Cytochrome P450 3A4 (Homo sapiens, UniProt P08684); assay: Inhibition of human CYP3A4; format: ADME
# Cytochrome P450 2C9 = Cytochrome P450 2C9 (Homo sapiens, UniProt P11712); assay: Inhibition of human CYP2C9; format: ADME
# [26] = Dissociation constant, pKa of the compound; format: physicochemical
# [27] = Solubility of the compound in simulated gastric fluid; format: physicochemical
# Cytochrome P450 2C19 = Cytochrome P450 2C19 (Homo sapiens, UniProt P33261); assay: Inhibition of human CYP2C19; format: ADME
# [28] = AUC (0 to 12 hrs) in patient with solid tumor at 15 mg, po bid by LC-MS/MS analysis; format: ADME, organism-based; parameters: time < 12 hr, dose 15 mg, route oral; conditions: human, in vivo
# [29] = Cmax in patient with solid tumor at 30 mg, po bid by LC-MS/MS analysis; format: ADME, organism-based; parameters: dose 30 mg, route oral; conditions: human, in vivo
# [30] = Solubility of the compound in FaSSIF; format: physicochemical
# [31] = molecular target: Phosphatidylinositol 4,5-bisphosphate 3-kinase catalytic subunit gamma isoform (Homo sapiens, UniProt P48736); assay: Inhibition of human PI3Kgamma (S144 to A1102 residues) expressed in mammalian expression system
# [32] = Tmax in patient with solid tumor at 60 mg, po bid by LC-MS/MS analysis; format: ADME, organism-based; conditions: human, in vivo
# [33] = Apparent permeability across apical to basolateral side in human Caco2 cells; format: ADME, cell-based; conditions: Caco-2
# [34] = Cmax in patient with solid tumor at 120 mg, po bid by LC-MS/MS analysis; format: ADME, organism-based; parameters: dose 120 mg, route oral; conditions: human, in vivo
# [35] = Cmax in patient with solid tumor at 15 mg, po bid by LC-MS/MS analysis; format: ADME, organism-based; parameters: dose 15 mg, route oral; conditions: human, in vivo
# [36] = molecular target: Serine/threonine-protein kinase mTOR (Homo sapiens) (UniProt P42345); assay: Inhibition of human m-TOR (L1382 to W2549 residues) expressed in mammalian expression system at 1 uM relative to control
# [37] = Solubility of the compound in phosphate buffer at pH 6.5; format: physicochemical
# [38] = molecular target: Phosphatidylinositol 4,5-bisphosphate 3-kinase catalytic subunit beta isoform (Homo sapiens, UniProt P42338); assay: Inhibition of human PI3Kbeta (P118 to S1070 residues) expressed in mammalian expression system
# [39] = molecular target: T2, Phosphatidylinositol 4,5-bisphosphate 3-kinase catalytic subunit delta isoform (Homo sapiens, UniProt O00329); assay: Inhibition of human PI3Kdelta (R108 to Q1044 residues) expressed in mammalian expression system
# T2 sequence (O00329 whole entry): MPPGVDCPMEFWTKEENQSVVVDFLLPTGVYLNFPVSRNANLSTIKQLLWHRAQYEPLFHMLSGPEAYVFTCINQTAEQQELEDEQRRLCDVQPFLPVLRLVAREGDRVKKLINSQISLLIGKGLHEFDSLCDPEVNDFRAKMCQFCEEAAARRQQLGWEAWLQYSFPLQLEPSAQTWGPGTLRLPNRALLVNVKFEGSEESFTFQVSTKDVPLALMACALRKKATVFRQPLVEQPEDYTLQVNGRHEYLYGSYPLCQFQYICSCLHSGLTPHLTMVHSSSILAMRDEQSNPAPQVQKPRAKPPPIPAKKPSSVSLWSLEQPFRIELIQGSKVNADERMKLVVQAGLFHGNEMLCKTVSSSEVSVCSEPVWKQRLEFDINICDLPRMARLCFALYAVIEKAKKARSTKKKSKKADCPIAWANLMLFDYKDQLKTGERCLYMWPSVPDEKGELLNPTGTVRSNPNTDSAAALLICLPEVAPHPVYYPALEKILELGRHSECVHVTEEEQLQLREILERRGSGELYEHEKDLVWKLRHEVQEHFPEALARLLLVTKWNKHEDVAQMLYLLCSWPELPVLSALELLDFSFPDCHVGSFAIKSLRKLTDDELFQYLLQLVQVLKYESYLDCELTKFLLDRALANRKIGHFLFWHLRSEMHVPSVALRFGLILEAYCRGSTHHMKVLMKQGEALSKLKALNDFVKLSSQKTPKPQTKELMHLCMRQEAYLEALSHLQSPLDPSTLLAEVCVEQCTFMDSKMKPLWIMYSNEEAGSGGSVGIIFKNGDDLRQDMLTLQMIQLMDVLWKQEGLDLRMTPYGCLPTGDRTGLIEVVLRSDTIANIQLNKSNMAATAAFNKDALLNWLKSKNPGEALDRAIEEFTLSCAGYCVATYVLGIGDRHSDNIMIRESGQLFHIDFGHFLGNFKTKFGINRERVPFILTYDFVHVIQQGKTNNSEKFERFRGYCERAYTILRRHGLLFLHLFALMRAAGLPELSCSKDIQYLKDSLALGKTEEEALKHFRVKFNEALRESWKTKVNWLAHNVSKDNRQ
# [40] = Thermodynamic solubility of the compound in 0.1M aqueous phosphate buffer at pH 7.4 after 24 hrs by LC-UV analysis; format: physicochemical; conditions: read-out: Therm_solubility
# Cytochrome P450 2D6 = Cytochrome P450 2D6 (Homo sapiens, UniProt P10635); assay: Inhibition of human CYP2D6; format: ADME
# Cytochrome P450 2D6, sequence (P10635 whole entry): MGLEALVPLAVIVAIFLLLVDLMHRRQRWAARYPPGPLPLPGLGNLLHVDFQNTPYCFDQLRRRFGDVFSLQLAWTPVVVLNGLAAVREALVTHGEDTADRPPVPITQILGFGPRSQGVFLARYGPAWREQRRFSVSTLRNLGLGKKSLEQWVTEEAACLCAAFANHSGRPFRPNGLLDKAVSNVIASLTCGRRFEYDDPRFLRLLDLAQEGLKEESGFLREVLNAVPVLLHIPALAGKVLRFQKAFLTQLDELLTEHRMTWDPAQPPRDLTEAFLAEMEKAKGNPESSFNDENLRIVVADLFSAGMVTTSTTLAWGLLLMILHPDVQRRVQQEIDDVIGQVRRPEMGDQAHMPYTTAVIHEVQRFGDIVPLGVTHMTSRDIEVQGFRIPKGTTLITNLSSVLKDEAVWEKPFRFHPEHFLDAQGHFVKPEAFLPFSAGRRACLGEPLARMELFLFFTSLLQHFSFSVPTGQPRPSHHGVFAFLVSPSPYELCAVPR
# Cytochrome P450 2C9, sequence (P11712 whole entry): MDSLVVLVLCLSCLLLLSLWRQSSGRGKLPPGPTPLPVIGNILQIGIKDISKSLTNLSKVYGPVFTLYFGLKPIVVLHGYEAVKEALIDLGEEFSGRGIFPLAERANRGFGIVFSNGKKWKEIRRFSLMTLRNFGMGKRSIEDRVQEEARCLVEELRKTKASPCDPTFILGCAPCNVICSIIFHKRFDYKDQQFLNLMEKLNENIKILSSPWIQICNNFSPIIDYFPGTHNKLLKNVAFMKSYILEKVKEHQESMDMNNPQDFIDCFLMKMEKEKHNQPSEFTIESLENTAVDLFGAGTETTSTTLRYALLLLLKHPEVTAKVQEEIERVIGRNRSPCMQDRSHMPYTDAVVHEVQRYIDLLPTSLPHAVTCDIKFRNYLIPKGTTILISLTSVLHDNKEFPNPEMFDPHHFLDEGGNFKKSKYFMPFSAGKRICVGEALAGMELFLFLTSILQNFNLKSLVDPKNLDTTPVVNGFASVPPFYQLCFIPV
# Serine-protein kinase ATM, sequence (Q13315 whole entry): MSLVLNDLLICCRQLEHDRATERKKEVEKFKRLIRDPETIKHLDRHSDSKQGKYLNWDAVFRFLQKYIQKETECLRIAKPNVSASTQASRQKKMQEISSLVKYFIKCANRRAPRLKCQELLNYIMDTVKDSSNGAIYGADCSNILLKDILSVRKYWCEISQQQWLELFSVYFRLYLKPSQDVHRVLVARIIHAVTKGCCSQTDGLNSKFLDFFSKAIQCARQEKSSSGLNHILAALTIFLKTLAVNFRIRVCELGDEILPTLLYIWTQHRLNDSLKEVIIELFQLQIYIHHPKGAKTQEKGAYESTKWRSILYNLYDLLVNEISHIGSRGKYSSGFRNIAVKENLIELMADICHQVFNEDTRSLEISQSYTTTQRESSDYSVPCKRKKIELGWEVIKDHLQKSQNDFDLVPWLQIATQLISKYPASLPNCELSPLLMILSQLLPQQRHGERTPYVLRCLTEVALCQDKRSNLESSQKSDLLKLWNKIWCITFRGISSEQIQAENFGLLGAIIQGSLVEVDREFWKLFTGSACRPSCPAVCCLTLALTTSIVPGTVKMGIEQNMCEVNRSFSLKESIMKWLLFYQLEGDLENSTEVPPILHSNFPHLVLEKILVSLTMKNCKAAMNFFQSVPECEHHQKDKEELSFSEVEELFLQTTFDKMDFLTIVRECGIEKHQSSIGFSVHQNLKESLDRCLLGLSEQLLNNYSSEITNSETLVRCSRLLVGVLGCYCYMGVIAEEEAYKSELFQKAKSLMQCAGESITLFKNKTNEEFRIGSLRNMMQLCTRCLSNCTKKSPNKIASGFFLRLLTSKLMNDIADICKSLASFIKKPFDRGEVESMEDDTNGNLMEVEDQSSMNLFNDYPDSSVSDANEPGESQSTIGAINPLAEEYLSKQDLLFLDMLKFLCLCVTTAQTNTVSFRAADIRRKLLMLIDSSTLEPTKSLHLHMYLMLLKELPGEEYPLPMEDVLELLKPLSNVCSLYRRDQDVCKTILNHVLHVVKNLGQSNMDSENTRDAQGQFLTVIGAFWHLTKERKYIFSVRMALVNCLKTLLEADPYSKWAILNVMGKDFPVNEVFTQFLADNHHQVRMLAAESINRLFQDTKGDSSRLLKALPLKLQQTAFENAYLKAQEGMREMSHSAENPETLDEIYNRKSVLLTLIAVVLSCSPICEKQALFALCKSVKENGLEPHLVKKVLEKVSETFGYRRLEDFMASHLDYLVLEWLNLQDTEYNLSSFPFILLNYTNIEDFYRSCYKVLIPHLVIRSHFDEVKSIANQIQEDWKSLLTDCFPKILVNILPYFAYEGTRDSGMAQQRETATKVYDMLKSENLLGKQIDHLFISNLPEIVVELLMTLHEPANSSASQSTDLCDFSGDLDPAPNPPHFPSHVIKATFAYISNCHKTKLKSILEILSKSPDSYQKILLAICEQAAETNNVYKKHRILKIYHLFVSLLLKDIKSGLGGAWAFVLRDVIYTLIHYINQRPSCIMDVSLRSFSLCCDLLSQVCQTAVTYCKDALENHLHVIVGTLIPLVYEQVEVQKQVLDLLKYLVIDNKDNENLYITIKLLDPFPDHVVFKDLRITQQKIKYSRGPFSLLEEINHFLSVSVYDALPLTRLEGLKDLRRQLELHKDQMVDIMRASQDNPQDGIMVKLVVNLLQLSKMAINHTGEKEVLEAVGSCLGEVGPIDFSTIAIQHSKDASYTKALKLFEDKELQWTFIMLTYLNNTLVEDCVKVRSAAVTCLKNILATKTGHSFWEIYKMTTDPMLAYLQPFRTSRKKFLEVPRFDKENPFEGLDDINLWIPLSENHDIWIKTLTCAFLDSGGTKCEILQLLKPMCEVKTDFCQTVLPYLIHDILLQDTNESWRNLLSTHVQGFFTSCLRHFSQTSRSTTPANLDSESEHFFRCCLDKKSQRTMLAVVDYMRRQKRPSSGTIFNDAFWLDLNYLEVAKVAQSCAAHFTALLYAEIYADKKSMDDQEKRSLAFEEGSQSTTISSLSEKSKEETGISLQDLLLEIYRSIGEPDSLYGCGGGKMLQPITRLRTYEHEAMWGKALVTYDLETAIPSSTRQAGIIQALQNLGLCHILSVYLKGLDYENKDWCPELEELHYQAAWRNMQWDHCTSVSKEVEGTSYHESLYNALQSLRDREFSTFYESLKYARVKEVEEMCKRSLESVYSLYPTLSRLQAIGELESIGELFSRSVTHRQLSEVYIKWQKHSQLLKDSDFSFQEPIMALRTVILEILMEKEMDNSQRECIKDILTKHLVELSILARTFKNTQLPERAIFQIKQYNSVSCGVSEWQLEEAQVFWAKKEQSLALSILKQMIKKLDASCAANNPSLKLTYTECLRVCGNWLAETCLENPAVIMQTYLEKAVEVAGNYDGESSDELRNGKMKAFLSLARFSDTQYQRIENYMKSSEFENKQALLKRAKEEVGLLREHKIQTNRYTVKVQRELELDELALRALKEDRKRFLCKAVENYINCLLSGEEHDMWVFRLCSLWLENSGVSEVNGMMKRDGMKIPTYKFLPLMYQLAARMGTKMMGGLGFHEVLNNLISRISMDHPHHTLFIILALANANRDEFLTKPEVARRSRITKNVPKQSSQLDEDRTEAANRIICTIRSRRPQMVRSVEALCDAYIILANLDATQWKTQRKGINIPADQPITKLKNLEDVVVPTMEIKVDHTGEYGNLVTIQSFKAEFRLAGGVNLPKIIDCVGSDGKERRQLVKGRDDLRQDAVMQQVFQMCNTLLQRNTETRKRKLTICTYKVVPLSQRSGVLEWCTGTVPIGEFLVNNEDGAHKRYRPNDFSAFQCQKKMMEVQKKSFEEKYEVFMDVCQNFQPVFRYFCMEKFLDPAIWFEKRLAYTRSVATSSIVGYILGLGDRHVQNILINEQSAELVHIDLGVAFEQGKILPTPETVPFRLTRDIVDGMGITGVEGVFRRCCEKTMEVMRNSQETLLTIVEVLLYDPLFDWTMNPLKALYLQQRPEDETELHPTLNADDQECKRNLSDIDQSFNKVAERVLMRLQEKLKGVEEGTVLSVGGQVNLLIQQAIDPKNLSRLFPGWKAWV
# Phosphatidylinositol 4,5-bisphosphate 3-kinase catalytic subunit gamma isoform, sequence (P48736 whole entry, the tested form may be a part, canonical isoform): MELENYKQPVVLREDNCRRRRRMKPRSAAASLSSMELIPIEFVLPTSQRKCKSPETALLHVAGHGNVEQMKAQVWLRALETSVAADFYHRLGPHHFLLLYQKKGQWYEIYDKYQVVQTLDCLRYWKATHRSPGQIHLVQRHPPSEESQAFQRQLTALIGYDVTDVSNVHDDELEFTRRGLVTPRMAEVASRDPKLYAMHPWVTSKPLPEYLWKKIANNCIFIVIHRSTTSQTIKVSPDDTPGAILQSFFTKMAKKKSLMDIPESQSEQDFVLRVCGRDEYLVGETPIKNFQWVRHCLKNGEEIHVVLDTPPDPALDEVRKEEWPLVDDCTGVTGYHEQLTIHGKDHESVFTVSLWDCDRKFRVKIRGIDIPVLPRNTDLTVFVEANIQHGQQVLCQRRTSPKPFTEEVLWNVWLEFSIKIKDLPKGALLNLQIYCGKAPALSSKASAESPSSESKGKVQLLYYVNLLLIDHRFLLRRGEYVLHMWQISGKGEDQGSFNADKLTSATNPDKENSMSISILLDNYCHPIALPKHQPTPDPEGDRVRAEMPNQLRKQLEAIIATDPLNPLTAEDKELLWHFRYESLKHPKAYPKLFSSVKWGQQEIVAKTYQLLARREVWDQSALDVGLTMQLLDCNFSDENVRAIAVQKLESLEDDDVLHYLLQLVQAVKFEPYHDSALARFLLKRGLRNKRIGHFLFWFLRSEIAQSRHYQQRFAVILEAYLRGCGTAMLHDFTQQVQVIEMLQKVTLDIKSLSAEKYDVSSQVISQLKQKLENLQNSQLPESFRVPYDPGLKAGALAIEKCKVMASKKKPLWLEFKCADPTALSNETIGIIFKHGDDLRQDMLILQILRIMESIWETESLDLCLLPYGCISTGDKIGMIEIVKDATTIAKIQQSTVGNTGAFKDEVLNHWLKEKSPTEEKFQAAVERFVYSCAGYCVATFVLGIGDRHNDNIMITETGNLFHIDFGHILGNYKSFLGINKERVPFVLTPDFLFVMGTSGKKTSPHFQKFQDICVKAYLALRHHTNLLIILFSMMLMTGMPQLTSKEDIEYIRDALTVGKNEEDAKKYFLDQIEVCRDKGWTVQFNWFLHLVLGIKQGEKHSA
smiles,measurement,setting,value
CN1CCN(CCC(=O)Nc2ccc3c(c2)Sc2cccc(-c4cc(=O)cc(N5CCOCC5)o4)c2S3)CC1,Ratio IC50,Homo sapiens [1],> 300
same,Ratio IC50,Homo sapiens [2],> 300
same,Ratio IC50,Homo sapiens [3],> 300
same,IC50,[4],3 nM
same,Ratio IC50,Homo sapiens [5],> 300
CN(C)CCCOc1ccc(-c2ccc3ncc4c(c3c2)n(C2CCOCC2)c(=O)n4C)cn1,Tmax,[6],2 h
same,AUC at 12 h,[7],105 ng·h/mL
same,bioavailability,[8],54%
same,logD,[9],1.5
same,Tmax,[10],2.5 h
same,Activity,SW-620 [11],Active
same,bioavailability,[12],57%
same,Tmax,[13],2 h
same,IC50,Cytochrome P450 1A2,> 30000 nM
same,Activity,Mus musculus [14],Non-Toxic
same,Papp A→B,[15],6.6 ×10⁻⁶ cm/s
same,AUC at 12 h,[16],206 ng·h/mL
same,Activity,Homo sapiens [17],Active
same,fraction unbound,[18],0.11
same,Cmax,[19],39.6 ng/mL
same,Activity,SW-620 [20],inactive
same,AUC at 12 h,[21],330 ng·h/mL
same,Papp A→B,[22],19 ×10⁻⁶ cm/s
same,Vd,[23],17.6 L/kg
same,Activity,Mus musculus [24],Non-Toxic
same,Vd,[25],4.3 L/kg
same,IC50,Cytochrome P450 3A4,> 30000 nM
same,IC50,Cytochrome P450 2C9,> 30000 nM
same,pKa,[26],9.6
same,solubility,[27],> 5000 µg/mL
same,IC50,Cytochrome P450 2C19,> 30000 nM
same,AUC at 12 h,[28],40.4 ng·h/mL
same,Cmax,[29],17.5 ng/mL
same,solubility,[30],> 5000 µg/mL
same,IC50,[31],1100 nM
same,Tmax,[32],2.5 h
same,Papp A→B,[33],5.6 ×10⁻⁶ cm/s
same,Cmax,[34],58.8 ng/mL
same,Cmax,[35],6.67 ng/mL
same,inhibition,[36],93%
same,solubility,[37],> 5000 µg/mL
same,IC50,[38],1800 nM
same,IC50,[39],270 nM
same,solubility thermodynamic at 24 h,[40],> 800 µM
same,IC50,Cytochrome P450 2D6,> 30000 nM
